Laboratory results reported in patent publication US10799480B2, “Calixpyrrole-based antitumor compounds” (Giam Pharma International sarl, priority 2016, dated 2020).
“Also recorded” adds a separate entry of the source.

Key:
[1] = system: mammary carcinoma MDAMB-231; assay: MTT test on mammary carcinoma MDAMB-231 cell line; assay type: cell-based; details: Homo sapiens, MDA-MB-231
Excerpt: (§1) Cellular vitality tests have been performed by using the derivatives of Formulas VII, I and III on due ovary carcinoma lines (SKOV-3 and A2774), two mammary carcinoma lines (MCF-7 and MDAMB-231) and two pulmonary carcinoma lines (H727 and A549). The compounds of Formulas I and III have further been tested in liposomal nanoparticles (NP) in comparison with the pulmonary carcinoma lines H727. The pulmonary carcinoma lines have been used also as target for determining the genotoxicity of the compounds of Formulas I and III, for determining the type of cellular death, through flow cytometry analyses, and for a preliminary analysis in vivo with toxicity determination and pharmacy-kinetics estimation (compound from Formula I).
(§2) In particular, for both tumor cellular lines, the derivatives of Formulas I and III have EC50 of about 20 μM, while the derivative of Formula VII has a EC50 included between 20 and 30 μM, as shown in the graphs in FIG. 3 and FIG. 4.

pulmonary carcinoma H727 = assay: MTT test on pulmonary carcinoma H727 cell line; assay type: cell-based; details: H727, different concentrations, as such or in lipid nanoparticles (NP)
Excerpt: as §1
(§3) The derivatives of Formulas I and III have been used for a series of MTT tests at different concentrations, as such or from a formulation of lipid nanoparticles (NP), using cellular lines deriving from pulmonary carcinoma H727.

[2] = system: DNA of pulmonary carcinoma A549 cells; assay: Receptor-DNA adducts through 32P marking; assay type: cell-based; details: A549, butanol enrichment
mammary carcinoma MCF-7 = assay: MTT test on mammary carcinoma MCF-7 cell line; assay type: cell-based; details: Homo sapiens, MCF7
Excerpt: as §1, §2

pulmonary carcinoma A549 [3] = assay: COMET test (DNA fragmentation); assay type: cell-based; details: concentrations from 5 to 50 μM, with respect to standard K
Excerpt: These latter data are mainly affected by the fact that this technique is not able to detect dead cells, and, in case of compounds of Formulas I and III, such percentage, as previously seen, is relevant.

ovary carcinoma SKOV-3 = assay: MTT test on ovary carcinoma SKOV-3 cell line; assay type: cell-based; details: for EC50: Homo sapiens, SK-OV-3, SKOV-3; for activity: SKOV-3, fragments
Excerpt: as §1
(§4) The macrocycles of Formulas VII, I and III have been used in MTT tests on cellular lines derive from ovary carcinoma. […] The selectivity shown by the derivative of Formula I compared with a specific cellular line surely needs to be further analyzed as regards its operating mechanism.
(§5) A series of MTT tests have been performed by using the derivatives of Formulas VI, VIII, II and IV (such compounds can be considered as possible fragments of the macrocycles of Formulas V, VII, I and III). […] The results of these MTT tests show how the cytotoxic activity of the compounds of the invention has to be ascribed to the complete structure of the macrocycle having the acetyl function and not to any isolated component thereof.

ovary carcinoma A2774 = assay: MTT test on ovary carcinoma A2774 cell line; assay type: cell-based
Excerpt: as §1, §4

pulmonary carcinoma A549 [4] = assay: MTT test on pulmonary carcinoma A549 cell line; assay type: cell-based; details: for efficacy compared with Endoxan (cyclophosphamide): A549, various concentrations; for efficacy: A549
Excerpt: as §1, §3, §5

pulmonary carcinoma A549 [5] = assay: Flow cytometry analysis of type of cellular death; assay type: cell-based
Excerpt: as §1
The cellular lines A549 treated with the compound of Formula I show 38.80% of apoptosis (9.05% early apoptosis and 29.75% late apoptosis) compared with a 9.30% of necrosis. The same cells treated with the compound of Formula III show 23.45% of total apoptosis (10.25% early apoptosis and 13.20% late apoptosis) against 4.75% of necrosis.

NJ mice = details: in vivo
Excerpt: (§6) A preliminary analysis for the toxicity in vivo has been performed by using the compound of Formula I on NJ mice. Due to the particularly hydrophobic nature of such derivative, after various attempts to determine the best solvent mixture, which is non-toxic for the animal, but which contains an adequate concentration of receptor, it has been decided to administer the compound using a mixture containing 10% of DMSO in olive oil. […] After 5 days, the mouse has been sacrificed and, through a HPLC/Mass analysis, the distribution of the compound inside the different compartments has been determined. The different tissues/organs (back sub-skin, spleen, omentum, heart, liver, brain, lung and kidney) have been removed, homogenized and analyzed. A high concentration of the compound of Formula I (determined through the computation of the peak area at m/z 546.31), corresponding to the analyzed compound [M-H]^−), has been observed in the injection site (Area 532.875) and in the spleen (Area 196.233), but the biggest amount has been discovered in the omentum (Area 1.237.999). Lower concentrations have been discovered in the kidney (Area 120.117), in the lung (Area 32.514) and in the heart (Area 29.443). A minimum amount of the compound has been detected in the liver (Area 11.293).

[6] = mouse, in vivo
Excerpt: as §6

[7] = literature; cited from earlier work
extrogen receptor GPER = extrogen receptor GPER (Homo sapiens, UniProt Q99527); details: literature; cited from earlier work
Sequence of extrogen receptor GPER (Q99527 whole entry): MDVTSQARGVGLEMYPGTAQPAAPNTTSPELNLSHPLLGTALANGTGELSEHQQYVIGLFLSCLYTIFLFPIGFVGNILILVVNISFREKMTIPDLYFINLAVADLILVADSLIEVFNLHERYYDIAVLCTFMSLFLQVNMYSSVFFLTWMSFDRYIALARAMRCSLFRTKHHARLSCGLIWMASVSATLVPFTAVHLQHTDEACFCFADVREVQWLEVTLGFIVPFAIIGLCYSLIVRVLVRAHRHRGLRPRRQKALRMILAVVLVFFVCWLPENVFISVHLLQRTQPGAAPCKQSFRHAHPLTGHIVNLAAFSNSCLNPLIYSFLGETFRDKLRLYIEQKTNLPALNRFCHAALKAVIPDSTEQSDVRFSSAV

CC(=O)Nc1cccc(C2(C)c3ccc([nH]3)C(C)(C)c3ccc([nH]3)C(C)(C)c3ccc([nH]3)C(C)(C)c3ccc2[nH]3)c1 [Formula III]
EC50 [1]: ~20 µM | efficacy (cellular vitality) (pulmonary carcinoma H727): maximum efficacy already at the lowest doses being used (5 μM) | adducts with DNA / genotoxicity [2]: adducts with DNA have been identified; also recorded: higher genotoxicity of the compound of Formula III with respect to the derivative of Formula I | EC50 (mammary carcinoma MCF-7): ~20 µM | fragmentation of DNA (pulmonary carcinoma A549 [3]): have not given any fragmentation of DNA | EC50 (ovary carcinoma SKOV-3): ~15 µM | EC50 (ovary carcinoma A2774): ~15 µM | efficacy compared with Endoxan (cyclophosphamide) (pulmonary carcinoma A549 [4]): even more efficient than the known chemotherapeutic drug Endoxan | early apoptosis (pulmonary carcinoma A549 [5]): 10.25% | late apoptosis (pulmonary carcinoma A549 [5]): 13.20% | main death mechanism (pulmonary carcinoma A549 [5]): apoptosis is the main death mechanism | necrosis (pulmonary carcinoma A549 [5]): 4.75% | total apoptosis (pulmonary carcinoma A549 [5]): 23.45%

CC(=O)Nc1ccc(C(C)(c2ccc[nH]2)c2ccc[nH]2)cc1 [Formula II]
efficacy (pulmonary carcinoma A549 [4]): have not shown any activity

CC(=O)Nc1cccc(C(C)(c2ccc[nH]2)c2ccc[nH]2)c1 [Formula IV]
efficacy (pulmonary carcinoma A549 [4]): have not shown any activity

CC(=O)Nc1ccc(C2(C)c3ccc([nH]3)C(C)(C)c3ccc([nH]3)C(C)(C)c3ccc([nH]3)C(C)(C)c3ccc2[nH]3)cc1 [Formula I]
EC50 [1]: ~20 µM | efficacy (cellular vitality) (pulmonary carcinoma H727): maximum efficacy already at the lowest doses being used (5 μM) | adducts with DNA / genotoxicity [2]: adducts with DNA have been identified | effects on the mouse (NJ mice; sc, 5 mg/kg): without discovering particular effects on the mouse | effect on the animal (NJ mice; mouse, ip): has not show any apparent effect on the animal | peak area in the brain ([6]; NJ, 5 days): 7.735 | peak area in the heart ([6]; NJ, 5 days): 29.443 | peak area in the injection site ([6]; NJ, 5 days): 532.875 | peak area in the kidney ([6]; NJ, 5 days): 120.117 | peak area in the liver ([6]; NJ, 5 days): 11.293 | peak area in the lung ([6]; NJ, 5 days): 32.514 | peak area in the spleen ([6]; NJ, 5 days): 196.233 | passing the hematic-encephalic barrier [6]: actually capable of passing the hematic-encephalic barrier | EC50 (mammary carcinoma MCF-7): ~20 µM | fragmentation of DNA (pulmonary carcinoma A549 [3]): have not given any fragmentation of DNA | EC50 (ovary carcinoma SKOV-3): 1 to 5 µM | EC50 (ovary carcinoma A2774): ~15 µM | efficacy compared with Endoxan (cyclophosphamide) (pulmonary carcinoma A549 [4]): even more efficient than the known chemotherapeutic drug Endoxan | early apoptosis (pulmonary carcinoma A549 [5]): 9.05% | late apoptosis (pulmonary carcinoma A549 [5]): 29.75% | main death mechanism (pulmonary carcinoma A549 [5]): apoptosis is the main death mechanism | necrosis (pulmonary carcinoma A549 [5]): 9.30% | total apoptosis (pulmonary carcinoma A549 [5]): 38.80%

CC(c1cccc(N)c1)(c1ccc[nH]1)c1ccc[nH]1 [Formula VIII]
activity (ovary carcinoma SKOV-3): inefficient

CC1(C)c2ccc([nH]2)C(C)(C)c2ccc([nH]2)C(C)(c2cccc(N)c2)c2ccc([nH]2)C(C)(C)c2ccc1[nH]2 [Formula VII]
EC50 [1]: 20 to 30 µM | EC50 (mammary carcinoma MCF-7): 20 to 30 µM | fragmentation of DNA (pulmonary carcinoma A549 [3]): a fragmentation is observed | EC50 (ovary carcinoma SKOV-3): ~15 µM | activity (ovary carcinoma A2774): has not shown any activity | efficacy (pulmonary carcinoma A549 [4]): seem not show any efficacy

CC(c1ccc(N)cc1)(c1ccc[nH]1)c1ccc[nH]1 [Formula VI]
activity (ovary carcinoma SKOV-3): inefficient

CC1(C)c2ccc([nH]2)C(C)(C)c2ccc([nH]2)C(C)(c2ccc(N)cc2)c2ccc([nH]2)C(C)(C)c2ccc1[nH]2 [Formula V]
fragmentation of DNA (pulmonary carcinoma A549 [3]): a fragmentation is observed | efficacy (pulmonary carcinoma A549 [4]): seem not show any efficacy

CC1(C)c2ccc([nH]2)C(C)(C)c2ccc([nH]2)C(C)(C)c2ccc([nH]2)C(C)(C)c2ccc1[nH]2 [meso-octametil-calix[4]pyrrole]
cytotoxicity [7]: has not appeared as cytotoxic | GPER inhibition (extrogen receptor GPER): selective inhibitor of the extrogen receptor GPER
